{
  "source": "patent US10028960B2",
  "about": "“Pyrimidine compounds as JAK kinase inhibitors” (THERAVANCE BIOPHARMA R&D IP, LLC, priority 2016, dated 2018)",
  "key": {"JAK1": {"target": "JAK1 (Homo sapiens (Human), UniProt P23458)", "sequence (P23458 whole entry)": "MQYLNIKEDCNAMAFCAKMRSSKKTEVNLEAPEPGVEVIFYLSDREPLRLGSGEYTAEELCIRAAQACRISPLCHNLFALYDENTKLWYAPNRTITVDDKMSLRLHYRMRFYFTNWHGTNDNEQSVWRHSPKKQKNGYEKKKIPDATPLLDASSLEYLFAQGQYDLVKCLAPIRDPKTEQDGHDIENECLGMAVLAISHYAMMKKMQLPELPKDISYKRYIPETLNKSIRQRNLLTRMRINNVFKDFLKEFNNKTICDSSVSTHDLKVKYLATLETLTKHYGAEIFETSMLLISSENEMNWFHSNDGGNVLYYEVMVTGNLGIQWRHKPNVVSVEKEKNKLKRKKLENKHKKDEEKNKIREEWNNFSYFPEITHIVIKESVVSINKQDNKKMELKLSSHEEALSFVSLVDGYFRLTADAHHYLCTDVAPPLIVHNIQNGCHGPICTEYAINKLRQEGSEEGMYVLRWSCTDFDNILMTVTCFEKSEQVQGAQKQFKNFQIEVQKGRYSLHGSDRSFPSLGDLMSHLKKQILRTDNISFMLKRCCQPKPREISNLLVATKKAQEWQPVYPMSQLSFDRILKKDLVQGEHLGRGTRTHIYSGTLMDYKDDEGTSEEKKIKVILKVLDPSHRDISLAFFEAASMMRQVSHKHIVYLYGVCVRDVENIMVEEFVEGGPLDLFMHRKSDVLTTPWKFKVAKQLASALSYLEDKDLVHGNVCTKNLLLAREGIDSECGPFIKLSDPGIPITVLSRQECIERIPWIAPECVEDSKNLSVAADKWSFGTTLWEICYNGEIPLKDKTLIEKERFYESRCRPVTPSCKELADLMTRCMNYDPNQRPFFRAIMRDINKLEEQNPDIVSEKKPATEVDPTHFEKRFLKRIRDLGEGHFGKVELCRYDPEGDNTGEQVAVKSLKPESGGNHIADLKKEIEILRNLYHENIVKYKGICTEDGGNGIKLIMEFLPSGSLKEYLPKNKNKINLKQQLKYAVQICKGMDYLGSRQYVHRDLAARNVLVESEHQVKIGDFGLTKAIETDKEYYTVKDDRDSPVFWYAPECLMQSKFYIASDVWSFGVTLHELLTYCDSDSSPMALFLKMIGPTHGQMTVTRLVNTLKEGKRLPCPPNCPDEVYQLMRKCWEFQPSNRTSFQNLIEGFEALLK", "test": "LanthaScreen JAK biochemical assay, JAK1", "protocol": "(§1) A panel of four LanthaScreen JAK biochemical assays (JAK1, 2, 3 and Tyk2) were carried in a common kinase reaction buffer (50 mM HEPES, pH 7.5, 0.01% Brij-35, 10 mM MgCl2, and 1 mM EGTA). Recombinant GST-tagged JAK enzymes and a GFP-tagged STAT1 peptide substrate were obtained from Life Technologies."}, "JAK2": {"target": "JAK2 (Homo sapiens (Human), UniProt O60674)", "sequence (O60674 whole entry)": "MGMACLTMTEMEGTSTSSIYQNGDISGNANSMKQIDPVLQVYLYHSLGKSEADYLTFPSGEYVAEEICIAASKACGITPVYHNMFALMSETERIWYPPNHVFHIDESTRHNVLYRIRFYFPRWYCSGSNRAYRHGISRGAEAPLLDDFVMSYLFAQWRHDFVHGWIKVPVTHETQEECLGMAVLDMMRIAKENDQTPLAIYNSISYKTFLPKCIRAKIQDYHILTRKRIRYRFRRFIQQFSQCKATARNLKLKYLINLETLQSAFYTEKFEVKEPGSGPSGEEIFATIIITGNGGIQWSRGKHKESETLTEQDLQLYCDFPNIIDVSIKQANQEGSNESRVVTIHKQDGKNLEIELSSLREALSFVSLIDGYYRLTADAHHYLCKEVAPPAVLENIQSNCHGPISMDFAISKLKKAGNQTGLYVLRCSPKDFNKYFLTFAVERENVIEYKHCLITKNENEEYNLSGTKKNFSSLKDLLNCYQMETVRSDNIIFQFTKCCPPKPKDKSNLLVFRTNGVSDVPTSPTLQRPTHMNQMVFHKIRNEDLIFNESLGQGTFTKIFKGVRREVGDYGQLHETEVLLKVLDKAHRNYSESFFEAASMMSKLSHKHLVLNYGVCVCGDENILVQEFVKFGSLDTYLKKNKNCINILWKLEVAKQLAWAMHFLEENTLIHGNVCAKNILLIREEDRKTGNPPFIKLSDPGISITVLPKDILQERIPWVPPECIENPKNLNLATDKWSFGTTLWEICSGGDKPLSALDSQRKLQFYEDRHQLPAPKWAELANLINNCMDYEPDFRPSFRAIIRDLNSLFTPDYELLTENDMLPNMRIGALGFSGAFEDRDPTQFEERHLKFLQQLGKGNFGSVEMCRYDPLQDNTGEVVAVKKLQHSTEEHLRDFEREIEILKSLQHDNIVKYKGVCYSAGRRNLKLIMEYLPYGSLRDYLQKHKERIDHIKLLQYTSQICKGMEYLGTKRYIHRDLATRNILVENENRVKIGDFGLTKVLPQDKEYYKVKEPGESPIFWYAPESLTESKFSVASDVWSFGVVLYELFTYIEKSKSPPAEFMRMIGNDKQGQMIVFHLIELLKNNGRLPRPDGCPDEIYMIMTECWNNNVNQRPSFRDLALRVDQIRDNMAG", "test": "LanthaScreen JAK biochemical assay, JAK2", "protocol": "as §1"}, "[1]": {"system": "IL-4 stimulated STAT6 phosphorylation in CD3+ T cells in human PBMCs", "test": "Cellular JAK potency assay: inhibition of IL-4 stimulated pSTAT6 in CD3+ T cells", "format": "cell-based", "settings": "T-cell", "protocol": "The potency of test compounds for inhibition of interleukin-4 (IL-4) stimulated STAT6 phosphorylation was measured in CD3-positive (CD3+) T cells in human peripheral blood mononuclear cells (PBMCs) isolated from human whole blood (Stanford Blood Center) using flow cytometry. Because IL-4 signals through JAK, this assay provides a measure of JAK cellular potency.\nCD3+ T cells were identified using a […] (PE) conjugated anti-CD3 antibody (Clone UCHT1, BD Biosciences), while an Alexa Fluor 647 conjugated anti-pSTAT6 antibody (pY641, Clone 18/P, BD Biosciences) was used to detect STAT6 phosphorylation.\nHuman peripheral blood mononuclear cells (PBMC) were isolated from human whole blood of healthy donors using a ficoll gradient. […] After incubation, cells were washed twice in FACS buffer before being analyzed using a LSRII flow cytometer (BD Biosciences).\nTo determine the inhibitory potency of test compounds in response to IL-4, the median fluorescent intensity (MFI) of pSTAT6 was measured in CD3+ T cells. IC50 values were determined from analysis of the inhibition curves of MFI vs compound concentration. Data are expressed as pIC50 (negative decadic logarithm IC50) values (mean±standard deviation)."}, "[2]": {"system": "mouse splenic NK, B and T cells", "settings": "in vivo, po", "protocol": "Depletion of mouse splenic cells is an experimental model of immunosuppression (Kudlacz et al., Am. J. of Transplantation, 2004, 4, 51-57). The compound of Example 2 was assessed in the mouse splenic cell model following the same treatment paradigm as that used in the oxazolone-induced colitis model (Assay 8).\nThe compound (1, 10 and 100 mg/kg, BID) and tofacitinib (30 and 60 mg/kg, BID) as a positive control were dosed orally for three days to naïve mice. Spleens were harvested 1 h post last dose and crushed immediately for cell subtype staining. Prior to fixation, fluorophore-labelled antibodies for CD19 (FITC; B cells), CD3e (PE; pan T cells) and DX5 (APC; NK cells) were incubated with splenocyte samples from each animal to allow for simultaneous, multiple subtype % analysis on the flow cytometer. The number of total spleen cells for each animal was measured by Scepter™ 2.0 Handheld Automated Cell Counter.\nThe absolute number of lymphocyte subtype population (e.g., splenic B, T and NK cells) was calculated from the percentage of each subtype times total spleen cells for each animal. A one way ANOVA, with Dunnett's post hoc test, was used to compare the splenic lymphocytes number of the vehicle and test compound groups. The a level was set at p<0.05. Data were presented as the mean±SEM for each group."}, "[3]": {"system": "TPA-induced increase in ear thickness", "test": "Topical TPA-induced irritant contact dermatitis model in mice", "format": "in vivo, Balb/c mice", "settings": "mouse ear, 6 hours after TPA", "protocol": "The objective of this assay is to assess the anti-inflammatory effect in a model of acute dermatitis of test compounds being studied for cutaneous inflammatory conditions such as atopic dermatitis (Dong et al., J Pharmacol Exp Ther, 2013, 344, 436-446).\nTopical dermal application of phorbol ester 12-O-tetradecanoylphorbol-13-acetate (TPA) in mice causes an inflammatory response that is characterized by edema and neutrophil influx at the early phase (2-24 h) and by epidermal cell proliferation at the later phase (24-48 h) (Griffiths et al., Agents and Actions, 1988, 25, 344-351). Female Balb/c mice were topically administered with either vehicle (1:7 DMSO:acetone) or 20 μL of a solution of TPA (2.5 μg) in vehicle on each ear. At 30 min before and 15 min after TPA administration, either vehicle or the compound of Example 2 at doses of 30, 100, 300, 1000, and 3000 μg in vehicle was applied topically to each ear. The degree of inflammation was assessed as the change in ear thickness at 6 hours after TPA application."}, "in vivo": {"test": "in vivo", "settings": "Sprague Dawley, rat, po", "method": "The test compound was formulated in 0.5% methyl-cellulose in water and dosed via oral gavage at 3.2 mg/kg and 100 mg/kg to Sprague Dawley rats. At various time points (typically 0.5, 1, 3, 6, 24 hr) post dosing, blood samples were removed via cardiac puncture and intact colons were excised from the rats. Blood samples were centrifuged at 1500×g for 15 min to collect plasma. Colons were washed with ice cold phosphate buffered saline (PBS), weighed, and homogenized at a dilution of 1:10 in PBS. Plasma and colon levels of test compound were determined by LC-MS analysis against analytical standards constructed into a standard curve in the test matrix. A colon to plasma ratio was determined as the ratio of the colon AUC to the plasma AUC in μg hr/g."}},
  "note": "“Also recorded” adds a separate entry of the source. Like-named read-outs stand apart in the source and are kept apart here.",
  "data": [
    {"smiles": "COc1cc(Nc2cc(CO)[nH]n2)nc(N(C)[C@@H]2C[C@H]3CCC[C@@H](C2)N3S(=O)(=O)N2CC(C#N)C2)n1", "note": "[Example 2, 1-(((1R,3s,5S)-3-((4-((5-(Hydroxymethyl)-1H-pyrazol-3-yl)amino)-6-methoxypyrimidin-2-yl)(methyl)amino)-9-azabicyclo[3.3.1]nonan-9-yl)sulfonyl)azetidine-3-carbonitrile]", "values": [
      {"measurement": "JAK 1 (pKi)", "setting": "JAK1", "result": "A (A represents a pKi value≥10 (Ki≤0.1 nM))"},
      {"measurement": "JAK 2 (pKi)", "setting": "JAK2", "result": "A (A represents a pKi value≥10 (Ki≤0.1 nM))"},
      {"measurement": "IC50", "setting": "[1]; IL-4 stimulated pSTAT6, CD3+ T cells, read-out: pIC50 value (converted)", "result": "~50.1", "unit": "nM"},
      {"measurement": "IC50", "setting": "[1]; cellular assay, Assay 4, read-out: IC50 for inhibition of IL-4", "result": "≤ 50", "unit": "nM"},
      {"measurement": "treatment effect on B and T cell populations", "setting": "[2]", "result": "No treatment effect"},
      {"measurement": "inhibition of TPA-induced increase in ear thickness (in words)", "setting": "[3]; topical 30-3000 μg", "result": "dose- and concentration-dependent effect; also recorded: dose- and concentration-dependent inhibition"},
      {"measurement": "maximum statistically significant inhibition of TPA-induced increase in ear thickness", "setting": "[3]; topical, 1000 μg dose", "result": 41, "unit": "%"},
      {"measurement": "Kp", "setting": "in vivo; 5 mg/kg", "result": "> 250"},
      {"measurement": "Kp", "setting": "in vivo; 100 mg/kg", "result": "> 1200"}
    ]}
  ]
}
